Data published in patent publication US20250381242A1 (INVAIO SCIENCES, INC., priority 2024, published 2025).
No end group written: not given here.

Legend:
A. tumefaciens = conditions: 24 h, 10 μM
E. amylovora = conditions: 24 h, 10 μM
X. citri = assay: Bacterial growth inhibition by OD600 absorbance, X. citri; format: cell-based, X. citri subsp. citri (ATCC 49118); conditions: peptide 10 μM, 24 hours at 30° C., OD 600 nm
Method: (§1) Antimicrobial activity of antimicrobial peptides was tested against the agricultural microbial pests A. tumefaciens, E. amylovora, E. coli, and X. citri, using OD absorbance measurement to detect bacterial growth.
(§2) Antimicrobial peptides were synthesized using solid phase peptide synthesis method and resuspended in 10% DMSO to a 1 mM stock concentration. The stock solution was aliquoted in cryovials and stored at −80° C.
(§3) An aliquot of 198 μl of the bacterial culture was added to each well in a 96-well plate and 2 μl of a 1 mM peptide stock solution was added to each well, for a final treatment concentration of 10 μM of a given peptide. Media only wells were included to control for contamination. The positive controls were 50 μg/ml oxytetracycline hydrochloride and 500 μg/ml streptomycin sulfate. A 0.1% DMSO treatment was included as a negative control.
(§4) An initial absorbance reading of the bacterial suspensions was taken at 600 nm. Then, the bacteria were grown in an incubator at 30° C. (A. tumefaciens, E. amylovora, X. citri) or 37° C. (E. coli) for 24 hours, after which the final absorbance reading was measured. Using the initial and final absorbance reading compared to negative and positive controls, the percent inhibition of the bacterial strain by given peptide treatment was determined.

E. coli = assay: Bacterial growth inhibition by OD600 absorbance, E. coli; format: cell-based, E. coli (DH5-alpha); conditions: peptide 10 μM, 24 hours at 37° C., OD 600 nm
Method: as §1, §2, §3, §4

Row | Sequence | growth inhibition, A. tumefaciens (A. tumefaciens) [%] | growth inhibition, E. amylovora (E. amylovora) [%] | growth inhibition, X. citri (X. citri) [%] | growth inhibition, E. coli (E. coli) [%]
1 | GMWSKILGHLIR [compound 137] | <90 | 100.00 | <90 | <90
2 | GWASSIGSILGKFAKGGAQAFLQPK [compound 44] | <90 | <90 | <90 | <90
3 | GWGDTFLKTMAKIAKVGPKLLHS [compound 48] | <90 | <90 | <90 | <90
4 | GWRTLLKKAEVKTVGKLALKHYL [compound 32] | <90 | <90 | <90 | <90
5 | IGKLFKRIVQRILKFLRNL [compound 63] | <90 | <90 | <90 | 97.14
6 | ILKKIWKPIKKLF [compound 109] | <90 | <90 | <90 | <90
7 | ILKKLLKKVKSI [compound 136] | <90 | <90 | <90 | <90
8 | INLKKLAARIKKKI [compound 112] | <90 | <90 | 100.00 | <90
9 | INWKKIKKKVAGML [compound 108] | <90 | 95.63 | 100.00 | <90
10 | INWLKIAKKVKGML [compound 111] | <90 | 100.00 | 100.00 | <90
11 | IRIKIRIKIRIK [compound 123] | <90 | <90 | <90 | <90
12 | IRVKIRVKIRVK [compound 128] | 97.32 | 99.30 | <90 | 100.00
13 | KIKWILKYWKWS [compound 106] | <90 | <90 | <90 | <90
14 | KKAAAAAAAAAAAAWAAAAAAKKKK [compound 70] | <90 | <90 | <90 | <90
15 | KKIGIWIGIKK [compound 141] | <90 | <90 | <90 | <90
16 | KKKKKKAAAFAAAAAFAAWAAFAAA [compound 51] | <90 | <90 | <90 | <90
17 | KKKKWKLFKKIGIGKFL [compound 75] | <90 | 100.00 | 100.00 | <90
18 | KKLLKLKLKWKK [compound 121] | <90 | <90 | 100.00 | <90

Row | Sequence | growth inhibition, A. tumefaciens (A. tumefaciens) [%] | growth inhibition, E. amylovora (E. amylovora) [%] | growth inhibition, X. citri (X. citri) [%] | growth inhibition, E. coli (E. coli) [%]
19 | KKLTLWLTLKK [compound 140] | <90 | <90 | <90 | <90
20 | KKPLLKKLLKKL [compound 133] | <90 | <90 | <90 | <90
21 | KKVVFKVKFK [compound 142] | <90 | <90 | <90 | <90
22 | KKWRKWLAKKKKK [compound 101] | <90 | <90 | <90 | <90
23 | KLKKIWWIKVKK [compound 116] | <90 | <90 | <90 | <90
24 | KLKKLLKKWLKLLKKLLK [compound 68] | <90 | <90 | <90 | 100.00
25 | KLLKQWPIGKLLKKLLKKLLK [compound 42] | 100.00 | <90 | 100.00 | 100.00
26 | KLLLKWKLKLLK [compound 126] | <90 | <90 | <90 | <90
27 | KLRKLFRKLLKLIRKLLR [compound 65] | <90 | <90 | <90 | 95.59
28 | KRIVARIKAFLR [compound 130] | <90 | 100.00 | <90 | <90
29 | KVVKQWPIGKVVKKVVKKVVK [compound 58] | <90 | <90 | <90 | <90
30 | KWKLFKKIGPGKFLHSAKKF [compound 60] | <90 | <90 | <90 | <90
31 | KWKLFKKIPLAKKF [compound 100] | <90 | <90 | <90 | <90
32 | KWKSFLKTFKSAKKTSLHTALKAISS [compound 26] | <90 | <90 | <90 | <90
33 | KWKSFLKTLKSPVKTVFYTALKPISS [compound 22] | 100.00 | 100.00 | 100.00 | 100.00
34 | KWLKKWLKWLKK [compound 102] | 100.00 | 100.00 | <90 | 100.00
35 | KWLLKLKLKLLK [compound 125] | <90 | <90 | <90 | <90
36 | LKKWWKTSKGLLGGLLGKVTSVIK [compound 34] | 100.00 | 100.00 | 100.00 | 100.00
